The values below come from PubChem BioAssay (NCI).

Test systems include A549 NSCLC; ACHN renal; HT29 colon; LOX IMVI melanoma; MDA-MB-435; NCI-H522 lung; OVCAR-3 ovarian; SK-MEL-2 melanoma; SW-620 colon; TK-10 renal.
Holding throughout (test): inhibition of tumour cell growth, NCI panel, 48 h

Values joined by “and” are separate entries in the source; they are usually repeats but may differ in a detail not shown here. Identical values can stand only once.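 A five-concentration, 48-hour dose response in 96-well plates underlies each endpoint, interpolated linearly between surrounding concentrations. GI50 = concentration required for 50% inhibition of growth. At the TGI there is no net growth.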

Regarding `Nc1nc(/C=C\c2ccccc2)nc(N2CCN(c3ccccc3)CC2)n1`, the GI50 in the assay on A549 NSCLC was 31.5 µM; in the assay on ACHN renal it was 29.2 µM; with HT29 colon, 18 µM; with LOX IMVI melanoma it was 19 µM; with MDA-MB-435 it was 28.4 µM; in the assay with NCI-H522 lung, 28.2 µM. The GI50 in the assay with OVCAR-3 ovarian is 28.2 µM; with SK-MEL-2 melanoma, 32.5 µM; in the assay on SW-620 colon, 36.3 µM; in the assay on TK-10 renal it was 28.4 µM. Also, the TGI is above 100 µM with A549 NSCLC; above 100 µM in the assay on ACHN renal; 41.8 µM in the assay with HT29 colon; 40.6 µM in the assay with LOX IMVI melanoma; 70.2 µM in the assay with MDA-MB-435; 84.9 µM in the assay with NCI-H522 lung. In addition, the TGI was 57.5 µM in the assay on OVCAR-3 ovarian, 91.7 µM in the assay on SK-MEL-2 melanoma, above 100 µM in the assay on SW-620 colon and 81.1 µM in the assay with TK-10 renal.
As to `O=C(c1ccc(Cl)cc1)C(O)c1ccc(Cl)cc1` (centres undefined), the TGI with A549 NSCLC, in the assay with ACHN renal, with HT29 colon, in the assay on LOX IMVI melanoma, with MDA-MB-435 and with NCI-H522 lung was above 100 µM throughout. Besides, the TGI in the assay on OVCAR-3 ovarian, in the assay on SK-MEL-2 melanoma, in the assay on SW-620 colon and with TK-10 renal was above 100 µM each time.
With `CC(=O)[C@H]1CCC/C=C/[C@@H]2C[C@H](O)C[C@H]2[C@H](O)/C=C/C(=O)O1`, the GI50 in the assay on A549 NSCLC was 1.17 µM; with ACHN renal, 0.674 µM; in the assay with HT29 colon, 0.253 µM; with LOX IMVI melanoma, 0.212 µM; in the assay on MDA-MB-435, 0.428 µM; with NCI-H522 lung, 0.805 µM. The GI50 is 0.393 µM in the assay with OVCAR-3 ovarian, 0.689 µM in the assay with SK-MEL-2 melanoma, 0.344 µM in the assay with SW-620 colon and 0.398 µM in the assay on TK-10 renal. Also, the TGI was above 100 µM in the assay with A549 NSCLC; above 26.4 µM in the assay on ACHN renal; 1.44 µM in the assay with HT29 colon; 0.633 µM in the assay with LOX IMVI melanoma; above 100 µM with MDA-MB-435; 2.74 µM in the assay with NCI-H522 lung. In addition, the TGI in the assay with OVCAR-3 ovarian was determined as 5.01 µM; with SK-MEL-2 melanoma, 2.91 µM; with SW-620 colon, 1.56 µM; in the assay with TK-10 renal, 3.17 µM.
On to `Cc1cc(Nc2cc(N3CCN(C)CC3)nc(/C=C/c3ccccc3)n2)n[nH]1`, for which the GI50 with A549 NSCLC is 0.501 µM; in the assay on ACHN renal, 0.205 µM; in the assay on HT29 colon, 0.542 µM; with LOX IMVI melanoma, 0.334 µM; with MDA-MB-435, 0.406 µM; in the assay on NCI-H522 lung, 0.336 µM. For the same molecule, the GI50 in the assay with OVCAR-3 ovarian is 1.2 µM; in the assay on SK-MEL-2 melanoma, 0.702 µM; in the assay with SW-620 colon it was 0.294 µM; with TK-10 renal, 0.797 µM. The TGI with A549 NSCLC is above 10 µM; with ACHN renal, 3.92 µM; in the assay on HT29 colon, above 6.77 µM; with LOX IMVI melanoma it was 1.51 µM; with MDA-MB-435, above 5.28 µM; in the assay with NCI-H522 lung, above 2.19 µM. The TGI in the assay with OVCAR-3 ovarian is above 10 µM; in the assay with SK-MEL-2 melanoma, above 2.39 µM; in the assay with SW-620 colon, above 10 µM; with TK-10 renal, above 5.11 µM.
As to `COc1cc(C2c3cc4c(cc3C(OC(=O)C[n+]3ccccc3)C3COC(=O)C23)OCO4)cc(OC)c1OC` (centres undefined), the GI50 with A549 NSCLC is below 0.0197 µM; in the assay on ACHN renal, below 0.0204 µM; in the assay with HT29 colon it was below 0.01 µM; in the assay on LOX IMVI melanoma it was below 0.0179 µM; in the assay with MDA-MB-435 it was below 0.01 µM; with NCI-H522 lung it was below 0.01 µM. Further, the GI50 was below 0.016 µM in the assay on OVCAR-3 ovarian, below 0.01 µM with SK-MEL-2 melanoma, below 0.0203 µM with SW-620 colon and above 100 µM in the assay on TK-10 renal. Further, the TGI in the assay with A549 NSCLC was above 100 µM; in the assay on ACHN renal, above 100 µM; in the assay with HT29 colon, above 100 µM; with LOX IMVI melanoma it was above 100 µM; in the assay with MDA-MB-435, below 0.01 µM; in the assay with NCI-H522 lung it was below 0.01 µM. In addition, the TGI in the assay with OVCAR-3 ovarian was below 0.0255 µM; with SK-MEL-2 melanoma, above 100 µM; in the assay with SW-620 colon, above 100 µM; in the assay on TK-10 renal, above 100 µM.
Turning to `CCCCCC/C=C\CCCCCCCCCC1=C(CN2CCN(C)CC2)C(=O)C=C(OC)C1=O`, the TGI was 28.6 µM in the assay with A549 NSCLC; 13 µM in the assay on ACHN renal; 23.9 µM in the assay with HT29 colon; 9.79 µM with LOX IMVI melanoma; 21.1 µM in the assay with MDA-MB-435; 3.01 µM in the assay with NCI-H522 lung. The TGI with OVCAR-3 ovarian worked out at 17.3 µM; in the assay on SK-MEL-2 melanoma it was 18.7 µM; with SW-620 colon it was 3.38 µM; in the assay on TK-10 renal, 9.4 µM.
Consider `O=[N+]([O-])c1cc([N+](=O)[O-])c(Nn2c3ccccc3c3ccccc32)c([N+](=O)[O-])c1`, for which the GI50 was 0.334 µM with A549 NSCLC; 0.323 µM in the assay with HT29 colon; 0.339 µM in the assay on LOX IMVI melanoma; 0.348 µM in the assay on MDA-MB-435; 0.253 µM in the assay with NCI-H522 lung; 0.352 µM with OVCAR-3 ovarian. For the same molecule, the figures for the GI50 in the assay with SK-MEL-2 melanoma, in the assay on SW-620 colon and with TK-10 renal were 0.267 µM, 0.366 µM and 0.315 µM, respectively. For the same molecule, the TGI in the assay with A549 NSCLC was 14.3 µM and > 100 µM; in the assay with ACHN renal it was 8.49 µM; in the assay on HT29 colon it was 8.43 µM and 3.43 µM; with LOX IMVI melanoma, 11.7 µM; with MDA-MB-435, 7.16 µM and 2.27 µM; in the assay on NCI-H522 lung, 1.88 µM and 0.838 µM. Also, the TGI is above 33.5 µM in the assay with OVCAR-3 ovarian; 0.702 µM in the assay on SK-MEL-2 melanoma; 23.7 µM and 3.56 µM with SW-620 colon; 11 µM and > 100 µM with TK-10 renal.
With `C=CCC(N[C@H](CO)c1ccccc1)c1cn(Cc2ccccc2Cl)c(=O)n(Cc2ccccc2Cl)c1=O` (some centres undefined), the GI50 is 15.3 µM in the assay with A549 NSCLC; 4.78 µM in the assay on ACHN renal; 11 µM in the assay on HT29 colon; 6.27 µM in the assay on LOX IMVI melanoma; 15.9 µM with MDA-MB-435; 14.3 µM in the assay on NCI-H522 lung. Besides, the GI50 in the assay on OVCAR-3 ovarian is 8.8 µM; in the assay on SK-MEL-2 melanoma it was 18.9 µM; with SW-620 colon it was 24.3 µM; in the assay on TK-10 renal it was 46.6 µM. The TGI with A549 NSCLC was above 100 µM; with ACHN renal, 39 µM; in the assay on HT29 colon, above 100 µM; in the assay on LOX IMVI melanoma it was 19 µM; with MDA-MB-435, 38.6 µM; with NCI-H522 lung, 89.9 µM. Besides, the TGI in the assay on OVCAR-3 ovarian is 43.8 µM; in the assay on SK-MEL-2 melanoma, 57.5 µM; with SW-620 colon it was above 100 µM; with TK-10 renal it was above 100 µM.
